Source: patent US7652143B2, “Cyclic ureas used as inhibitors of metalloproteases” (sanofi-aventis Deutschland GmbH, priority 2004, dated 2010)
Where a name gives a salt, the structure may show the parent alone. Read-outs that look alike come from different tables or passages of the source.

Tests used:
human ADAMTS-4 protease = biological target: T1, human ADAMTS-4 protease (Homo sapiens, UniProt O75173); assay: Inhibition of ADAMTS-4 activity (rAgg1mut substrate, neo-epitope ELISA); format: biochemical; details: recombinant human ADAMTS-4, rAgg1mut substrate
T1 sequence (O75173 213-837): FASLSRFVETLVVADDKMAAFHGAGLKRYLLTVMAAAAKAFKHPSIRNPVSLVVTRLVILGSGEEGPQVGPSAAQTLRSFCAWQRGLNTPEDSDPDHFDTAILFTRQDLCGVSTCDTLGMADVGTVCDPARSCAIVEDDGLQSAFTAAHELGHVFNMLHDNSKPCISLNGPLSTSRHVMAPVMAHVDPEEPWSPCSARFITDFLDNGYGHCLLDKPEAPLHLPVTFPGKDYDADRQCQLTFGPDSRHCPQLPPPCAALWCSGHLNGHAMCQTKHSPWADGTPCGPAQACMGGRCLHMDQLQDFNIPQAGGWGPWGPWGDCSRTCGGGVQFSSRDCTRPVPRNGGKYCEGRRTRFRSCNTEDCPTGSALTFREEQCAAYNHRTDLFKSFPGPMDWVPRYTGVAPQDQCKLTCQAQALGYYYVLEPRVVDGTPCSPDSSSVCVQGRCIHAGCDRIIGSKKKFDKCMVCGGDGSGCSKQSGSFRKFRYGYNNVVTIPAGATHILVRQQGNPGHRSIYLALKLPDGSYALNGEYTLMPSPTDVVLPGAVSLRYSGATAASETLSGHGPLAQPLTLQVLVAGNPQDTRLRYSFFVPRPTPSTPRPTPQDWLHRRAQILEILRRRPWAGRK

MMP13 = biological target: T2, MMP13 (Homo sapiens, UniProt P45452); assay: Inhibition of MMP 13 activity (fluorimetric peptide substrate cleavage); format: biochemical; details: recombinant enzyme, APMA activation, pH 7.5 or pH 6.5, fluorimeter
T2 construct: purchased Biotrend, Roche, Boehringer Mannheim

[1] = biological target: T3, TNFα-converting enzyme (TACE) (Homo sapiens, UniProt P78536); assay: Inhibition of TACE activity (fluorimetric peptide substrate cleavage); format: biochemical
T3 construct: purchased R&D Systems
Procedure: The activity of the cyclic urea derivatives of the invention was tested in various in vitro assay systems for inhibitory activity on the proteases ADAMTS-4 and TNFα-converting enzyme (TACE) and on matrix-degrading metalloproteases (MMP13).
The activity in relation to TACE was measured using a commercially available, recombinantly prepared TACE protease (R&D Systems) and the substrate MCA-ProLeuAlaGlnAlaVal-Dpa-ArgSerSerSerArg-NH2 (Bachem).

[2] = system: primary bovine chondrocytes; assay: Inhibition of proteoglycan liberation from IL1α-stimulated primary bovine chondrocyte cultures; format: cell-based; details: Bos taurus, alginate culture, 5 ng/ml human IL1α, 16 hours, dimethylmethylene blue dye test
Procedure: The proteoglycan degradation was determined using primary bovine chondrocytes which were isolated from the cartilage of the metacarpophalangeal joint of cattle about 6 months old and cultured in an alginate matrix at 37° C. and 5% CO2 for 3 weeks. Stimulation of ˜160 000 cells with 5 ng/ml human IL1α was followed after 16 hours by determination of the liberated amount of proteoglycan by means of a commercially available dimethylmethylene blue dye test system (Biocolor Ltd.).

[3] = recombinant TACE (R&D Systems), MCA peptide substrate, fluorimeter, read-out: Inhibition of TACE activity (IC50)

T3 sequence (P78536 215-824): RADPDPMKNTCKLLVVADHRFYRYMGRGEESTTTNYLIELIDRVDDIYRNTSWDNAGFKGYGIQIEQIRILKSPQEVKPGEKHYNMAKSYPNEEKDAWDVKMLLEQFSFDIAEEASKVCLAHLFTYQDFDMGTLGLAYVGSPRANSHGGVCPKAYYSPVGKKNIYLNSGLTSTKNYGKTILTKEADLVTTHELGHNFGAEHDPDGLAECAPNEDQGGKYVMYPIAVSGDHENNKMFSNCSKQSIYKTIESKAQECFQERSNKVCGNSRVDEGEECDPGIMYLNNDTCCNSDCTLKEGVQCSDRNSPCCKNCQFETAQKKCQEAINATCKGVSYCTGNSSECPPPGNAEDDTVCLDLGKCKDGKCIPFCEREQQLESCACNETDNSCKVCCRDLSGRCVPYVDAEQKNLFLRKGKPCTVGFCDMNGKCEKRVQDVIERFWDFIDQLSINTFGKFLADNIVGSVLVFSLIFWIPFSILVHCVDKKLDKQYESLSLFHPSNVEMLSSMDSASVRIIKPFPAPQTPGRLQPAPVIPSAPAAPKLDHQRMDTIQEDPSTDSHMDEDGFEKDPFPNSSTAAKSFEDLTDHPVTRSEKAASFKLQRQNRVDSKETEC

Compound | IC50 (human ADAMTS-4 protease) | IC50 (MMP13) | IC50 [1, 3] | IC50 [1] | IC50 [2]
2-(3-Biphenyl-4-ylmethyl-2-oxoimidazolidin-1-yl)-N-hydroxy-3-methylbutyramide [Example 6] | 9.06 µM |  |  |  | 
CC(C)C(C(=O)NO)N1CCN(Cc2ccc(OCc3ccccc3)cc2)C1=O (stereo not drawn) [Example 1, 2-(3-(4-Benzyloxybenzyl)-2-oxoimidazolidin-1-yl)-N-hydroxy-3-methylbutyramide] | 2.1 µM | 5 µM | 2.47 µM |  | > 50 µM
CC(C)C(C(=O)NO)N1CCN(Cc2ccc(Oc3ccccc3)cc2)C1=O (stereo not drawn) [Example 4, N-Hydroxy-3-methyl-2-(2-oxo-3-(4-phenoxybenzyl)imidazolidin-1-yl)-butyramide] | 1.33 µM | 0.08 µM | 5 µM |  | 
COc1ccc(C2CN(Cc3ccccc3)C(=O)N2C(C(=O)NO)C(C)C)cc1 (stereo not drawn) [Example 7, 2-(3-Benzyl-5-(4-methoxyphenyl)-2-oxoimidazolidin-1-yl)-N-hydroxy-3-methylbutyramide] |  | 0.01 µM |  | 9 µM | 
CC(C)C(C(=O)NO)N1CCN(Cc2ccc(OCc3cccnc3)cc2)C1=O (stereo not drawn) [Example 11, N-Hydroxy-3-methyl-2-[2-oxo-3-(4-(pyridin-3-ylmethoxy)benzyl)imidazolidin-1-yl]-butyramide with TFA] | 7.8 µM | 5.4 µM | 3 µM |  | 
CC(C)C(C(=O)NO)N1CCN(Cc2ccc(OCc3ccccn3)cc2)C1=O (stereo not drawn) [Example 12, N-Hydroxy-3-methyl-2-{2-oxo-3-(4-(pyridin-2-ylmethoxy)benzyl)imidazolidin-1-yl}butyramide with TFA] | 7 µM |  | 8 µM |  | 
COc1ccc(CC2CN(Cc3ccc(OCc4ccccc4)cc3)C(=O)N2C(C(=O)NO)C(C)C)cc1 (stereo not drawn) [Example 16, 2-(3-(4-Benzyloxybenzyl)-5-(4-methoxybenzyl)-2-oxoimidazolidin-1-yl)-N-hydroxy-3-methylbutyramide] | 1.39 µM | 0.42 µM | 3.08 µM |  | 25.5 µM
COc1ccc(CC2CN(Cc3ccc(OCc4ccccc4)cc3)S(=O)(=O)N2C(C(=O)NO)C(C)C)cc1 (stereo not drawn) [Example 20, 2-(5-(4-Benzyloxybenzyl)-3-(4-methoxybenzyl)-1,1-dioxo-(1,2,5)thiadiazolidin-2-yl)-N-hydroxy-3-methylbutyramide] |  | 3.58 µM |  |  | 

Second part, led by results:

IC50 (human ADAMTS-4 protease) | IC50 (MMP13) | IC50 [1, 3] | IC50 [1] | Compound | IC50 [2]
55 µM |  |  |  | CC(C)C(C(=O)NO)N1CCN(c2ccc(OCc3ccccc3)cc2)C1=O (stereo not drawn) [Example 2, 2-(3-(4-Benzyloxyphenyl)-2-oxoimidazolidin-1-yl)-N-hydroxy-3-methylbutyramide] | 
 |  | 2 µM |  | CC(C)C(C(=O)NO)N1CCN(Cc2cccc(OCc3ccccc3)c2)C1=O (stereo not drawn) [Example 3, 2-(3-(3-Benzyloxybenzyl)-2-oxoimidazolidin-1-yl)-N-hydroxy-3-methylbutyramide] | 
10 µM |  |  |  | CC(C)C(C(=O)NO)N1CCN(Cc2ccc(OCc3ccccc3)nc2)C1=O (stereo not drawn) [Example 5, 2-(3-(6-Benzyloxypyridin-3-ylmethyl)-2-oxoimidazolidin-1-yl)-N-hydroxy-3-methylbutyramide] | 
72.4 µM |  | 3.04 µM |  | CC(C)C(C(=O)NO)N1CCN(Cc2cccc(O)c2)C1=O (stereo not drawn) [Example 9, N-Hydroxy-2-(3-(3-hydroxybenzyl)-2-oxoimidazolidin-1-yl)-3-methylbutyramide] | 
0.9 µM | 4 µM |  | 1.14 µM | CC(C)C(C(=O)NO)N1CCN(Cc2ccc(OCc3ccncc3)cc2)C1=O (stereo not drawn) [Example 10, N-Hydroxy-3-methyl-2-{2-oxo-3-(4-(pyridin-4-ylmethoxy)benzyl)imidazolidin-1-yl}-butyramide; compound with TFA] | > 50 µM
 |  | 5 µM |  | CC#CCOc1ccc(CN2CCN(C(C(=O)NO)C(C)C)C2=O)cc1 (stereo not drawn) [Example 13, 2-(3-(4-But-2-ynyloxybenzyl)-2-oxoimidazolidin-1-yl)-N-hydroxy-3-methylbutyramide] | 
1.14 µM |  | 0.01 µM |  | Cc1cc(COc2ccc(CN3CCN(C(C(=O)NO)C(C)C)C3=O)cc2)c2ccccc2n1 (stereo not drawn) [Example 14, N-Hydroxy-3-methyl-2-{3-(4-(2-methylquinolin-4-ylmethoxy)benzyl)-2-oxoimidazolidin-1-yl}butyramide with TFA] | 12.9 µM
17 µM | 0.4 µM | 8 µM |  | COc1ccc(CC2CN(Cc3ccccc3)C(=O)N2C(C(=O)NO)C(C)C)cc1 (stereo not drawn) [Example 15, 2-(3-Benzyl-5-(4-methoxybenzyl)-2-oxoimidazolidin-1-yl)-N-hydroxy-3-methylbutyramide] | 
 | 3.17 µM |  |  | COc1ccc(CC2CN(C)C(=O)N2C(C(=O)NO)C(C)C)cc1 (stereo not drawn) [Example 17, N-Hydroxy-2-(5-(4-methoxybenzyl)-3-methyl-2-oxoimidazolidin-1-yl)-3-methylbutyramide] | 
3.16 µM | 0.6 µM | 1.9 µM |  | CC(C)C(C(=O)NO)N1C(=O)N(Cc2ccc(OCc3ccccc3)cc2)CC1Cc1ccc2c(c1)OCO2 (stereo not drawn) [Example 18, 2-(5-Benzo(1,3)dioxol-5-ylmethyl-3-(4-benzyloxybenzyl)-2-oxoimidazolidin-1-yl)-N-hydroxy-3-methylbutyramide] | 
 | 0.34 µM | 9.29 µM |  | CC(C)C(C(=O)NO)N1C(=O)N(Cc2ccccc2)CC1Cc1ccc2c(c1)OCO2 (stereo not drawn) [Example 19, 2-(5-Benzo(1,3)dioxol-5-ylmethyl-3-benzyl-2-oxoimidazolidin-1-yl)-N-hydroxy-3-methylbutyramide] | 
